Data from patent US9738653B2, “Fused furans for the treatment of hepatitis C” (BRISTOL-MYERS SQUIBB COMPANY, priority 2013, dated 2017).

Experiments:
[1] = biological target: T1, HCV NS5B genotype 1b (Con1) (Hepatitis C virus genotype 1b, UniProt Q9WMX2); assay: HCV NS5B RdRp enzyme assay; type: biochemical; conditions: 1b enzyme, 24 hours at 30° C.
T1 construct: Each untagged protein was expressed with an 18 amino acid C-terminal truncation to enhance the solubility; made in house; host or cells: E. coli BL21(DE3), pET21a
T1 sequence (Q9WMX2 2420-2992): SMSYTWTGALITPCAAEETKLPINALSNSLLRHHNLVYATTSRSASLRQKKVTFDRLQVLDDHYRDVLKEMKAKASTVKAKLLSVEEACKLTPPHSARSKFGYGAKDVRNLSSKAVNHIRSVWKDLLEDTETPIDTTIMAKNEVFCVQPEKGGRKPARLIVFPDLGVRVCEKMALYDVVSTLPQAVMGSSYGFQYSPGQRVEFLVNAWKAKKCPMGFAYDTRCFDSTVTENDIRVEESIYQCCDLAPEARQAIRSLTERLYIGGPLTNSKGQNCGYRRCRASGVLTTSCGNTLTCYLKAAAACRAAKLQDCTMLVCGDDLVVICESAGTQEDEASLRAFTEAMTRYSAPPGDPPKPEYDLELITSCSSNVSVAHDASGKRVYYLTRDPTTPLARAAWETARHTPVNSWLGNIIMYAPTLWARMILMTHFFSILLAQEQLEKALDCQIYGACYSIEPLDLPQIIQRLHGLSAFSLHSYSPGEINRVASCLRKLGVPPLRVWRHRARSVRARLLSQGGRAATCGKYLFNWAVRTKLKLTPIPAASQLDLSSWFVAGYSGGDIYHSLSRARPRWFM
Method: The cDNA encoding NS5B proteins of HCV genotype 1b (Con1), a genotype 1b variant with amino acid 316 mutated from cysteine to asparagine, and genotype 2a (JFH-1), were cloned into the pET21a expression vector. Each untagged protein was expressed with an 18 amino acid C-terminal truncation to enhance the solubility. The E. coli competent cell line BL21(DE3) was used for expression of the protein. Cultures were grown at 37° C. for ˜4 hours until the cultures reached an optical density of 2.0 at 600 nm. The cultures were cooled to 20° C. and induced with 1 mM IPTG. Fresh ampicillin was added to a final concentration of 50 μg/mL and the cells were grown overnight at 20° C.
The lysis buffer consisted of 20 mM Tris-HCl, pH 7.4, 500 mM NaCl, 0.5% triton X-100, 1 mM DTT, 1 mM EDTA, 20% glycerol, 0.5 mg/mL lysozyme, 10 mM MgCl2, 15 ug/mL deoxyribonuclease I, and Complete™ protease inhibitor tablets (Roche). After addition of the lysis buffer, frozen cell pellets were resuspended using a tissue homogenizer. To reduce the viscosity of the sample, aliquots of the lysate were sonicated on ice using a microtip attached to a Branson sonicator. The sonicated lysate was centrifuged at 100,000×g for 30 minutes at 4° C. and filtered through a 0.2 μm filter unit (Corning).
The protein was purified using two sequential chromatography steps: Heparin sepharose CL-6B and polyU sepharose 4B. The chromatography buffers were identical to the lysis buffer but contained no lysozyme, deoxyribonuclease I, MgCl2 or protease inhibitor and the NaCl concentration of the buffer was adjusted according to the requirements for charging the protein onto the column. Each column was eluted with a NaCl gradient which varied in length from 5-50 column volumes depending on the column type. […] The enzyme was aliquoted and stored at −80° C.
An on-bead solid phase homogeneous assay was used in a 384-well format to assess NS5B inhibitors (WangY-K, Rigat K, Roberts S, and Gao M (2006) Anal Biochem, 359: 106-111). The biotinylated oligo dT12 primer was captured on streptavidin-coupled imaging beads (GE, RPNQ0261) by mixing primer and beads in 1× buffer and incubating at room temperature for three hours. Unbound primer was removed after centrifugation. The primer-bound beads were resuspended in 3× reaction mix (20 mM Hepes buffer, pH 7.5, dT primer coupled beads, poly A template, ^3H-UTP, and RNAse inhibitor (Promega N2515)). Compounds were serially diluted 1:3 in DMSO and aliquoted into assay plates. Equal volumes (5 μL) of water, 3× reaction mix, and enzyme in 3× assay buffer (60 mM Hepes buffer, pH 7.5, 7.5 mM MgCl2, 7.5 mM KCl, 3 mM DTT, 0.03 mg/mL BSA, 6% glycerol) were added to the diluted compound on the assay plate. Final concentration of components in 384-well assay: 0.36 nM template, 15 nM primer, 0.29 μM ^3H-UTP (0.3 μCi, 1.6 U/μL RNAse inhibitor, 7 nM NS5B enzyme, 0.01 mg/mL BSA, 1 mM DTT, and 0.33 μg/μL beads, 20 mM Hepes buffer, pH 7.5, 2.5 mM MgCl2, 2.5 mM KCl, and 0.1% DMSO.
Reactions were allowed to proceed for 24 hours at 30° C. and terminated by the addition of 50 mM EDTA (5 μL). After incubating for at least 15 minutes, plates were read on an Amersham LEADseeker multimodality imaging system.
IC50 values for compounds were determined using ten different [I]. IC50 values were calculated from the inhibition using the four-parameter logistic formula y=A+((B−A)/(1+((C/x)^D))), where A and B denote minimal and maximal % inhibition, respectively, C is the IC50, D is hill slope and x represents compound concentration.

[2] = system: genotype 1b (Con-1) HCV replicon in Huh-7 cells; assay: HCV replicon luciferase assay; type: cell-based; conditions: 1b replicon, Renilla luciferase, 3 days incubation
Method: The cell lines used to evaluate compounds consist of a human hepatocyte derived cell line (Huh-7) that constitutively expresses a genotype 1b (Con-1) HCV replicon or a genotype 1b (Con-1) HCV replicon with an asparagine replacing the cysteine at amino acid 316, or a genotype 2a (JFH-1) replicon, containing a Renilla luciferase reporter gene. These cells were maintained in Dulbecco's modified Eagle medium (DMEM) containing 10% FBS, 100 U/mL penicillin/streptomycin and 1.0 mg/mL G418.
To evaluate compound efficacy, titrated compounds were transferred to sterile 384-well tissue culture treated plates, and the plates were seeded with HCV replicon cells ([…] at a density of 2.4×10^3 cells/well) in DMEM containing 4% FBS (final DMSO concentration at 0.5%). After 3 days incubation at 37° C., cells were analyzed for Renilla Luciferase activity using the EnduRen substrate (Promega cat #E6485) according to the manufacturer's directions. Briefly, the EnduRen substrate was diluted in DMEM and then added to the plates to a final concentration of 7.5 μM. The plates were incubated for at least 1 h at 37° C. then read on a Viewlux Imager (PerkinElmer) using a luminescence program. The 50% effective concentration (EC50) was calculated using the four-parameter logistic formula noted above.

HCV [3] = conditions: cited from earlier work
HCV [4] = conditions: combination therapy; cited from earlier work

Molecule	IC50 [1] [nM]	EC50 ([2]; Hepatitis C virus, Huh-7, 72 h) [nM]	also measured
CNC(=O)c1c(-c2ccc(F)cc2)oc2nc(NCC(F)F)c(-c3ccc(OC)c(C(=O)NC45CC(C4)C5)c3)cc12	8.87	6.23	–
CCCc1nc2oc(-c3ccc(F)cc3)c(C(=O)NC)c2cc1-c1cccc(C(=O)NC23CC(C2)C3)c1	7.73	5.26	–
CNC(=O)c1c(-c2ccc(F)cc2)oc2nc(NCC(F)F)c(-c3ccc(F)c(C(=O)NC45CC(C4)C5)c3)cc12	6.13	2.13	–
CCCc1cc2oc(-c3ccc(F)cc3)c(C(=O)NC)c2cc1-c1cccc(C(=O)NC23CC(C2)C3)c1	20	5.82	–
CNC(=O)c1c(-c2ccc(F)cc2)oc2cc(COC)c(-c3cccc(C(=O)NC45CC(C4)C5)c3)c(F)c12	210	7.88	–
CCCc1nc2oc(-c3ccc(F)cc3)c(C(=O)NC)c2cc1-c1ccc(F)c(C(=O)NC23CC(C2)C3)c1	5.65	5.16	–
CNC(=O)c1c(-c2ccc(F)cc2)oc2nc(NCC(F)F)c(-c3cccc(C(=O)NC45CC(C4)C5)c3)cc12	8.63	4.3	–
CNC(=O)c1c(-c2ccc(F)cc2)oc2nc(CCC(F)(F)F)c(-c3cnc(OC)c(C(=O)NC45CC(C4)C5)c3)cc12	3.65	6.48	–
CNC(=O)c1c(-c2ccc(F)cc2)oc2nc(NCC(F)(F)F)c(-c3cnc(OC)c(C(=O)NC45CC(C4)C5)c3)cc12	6.54	5.79	–
CCN(c1nc2oc(-c3ccc(F)cc3)c(C(=O)NC)c2cc1-c1cccc(C(=O)NC23CC(C2)C3)c1)S(C)(=O)=O	6.8	2.85	–
CNC(=O)c1c(-c2ccc(F)cc2)oc2cc(CC(N)=O)c(-c3cccc(C(=O)NC45CC(C4)C5)c3)cc12	40	20	–
CNC(=O)c1c(-c2ccc(F)cc2)oc2cc(CCCO)c(-c3cccc(C(=O)NC45CC(C4)C5)c3)cc12	9.56	3.86	–
CNC(=O)c1c(-c2ccc(F)cc2)oc2cc(CCCF)c(-c3cccc(C(=O)NC45CC(C4)C5)c3)cc12	3.29	3.33	–
CNC(=O)c1c(-c2ccc(F)cc2)oc2cc(CC(=O)OC)c(-c3cccc(C(=O)NC45CC(C4)C5)c3)cc12	8.01	8.19	–
CNC(=O)c1c(-c2ccc(F)cc2)oc2cc(CCC(F)F)c(-c3cccc(C(=O)NC45CC(C4)C5)c3)cc12	7.19	3.89	–
CNC(=O)c1c(-c2ccc(F)cc2)oc2cc(NCC(F)(F)F)c(-c3ccc(OC)c(C(=O)NC45CC(C4)C5)c3)cc12	7.17	5.08	–
CNC(=O)c1c(-c2ccc(F)cc2)oc2cc(N(CCO)S(C)(=O)=O)c(C3CC3)cc12 [HCV-796]	–	–	hepatic toxicity (HCV [3]; extended dosing of the combination regimens with interferon and ribavirin): hepatic toxicity observed; HCV RNA levels in patients (HCV [3]; patients, single agent): showed an ability to reduce HCV RNA levels in patients
CCC(C)c1cc2oc(-c3ccc(F)cc3)c(C(=O)NC)c2cc1-c1cccc(C(=O)NC23CC(C2)C3)c1 (stereo not drawn) [drawing 294]	10	–	EC50 [2]: 10 nM
CCC(C)c1cc2oc(-c3ccc(F)cc3)c(C(=O)NC)c2cc1-c1cccc(C(=O)NC23CC(C2)C3)c1 (stereo not drawn) [drawing 304]	5.87	10	–
alpha-interferon and ribavirin	–	–	sustained efficacy, patients (HCV [4]): 40%
